# Laboratory results reported in ChEMBL document CHEMBL1201862, “PubChem BioAssay data set” (2004).
#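 All cell lines were grown in 96-well plates and treated with compound for 48 hours. Abbreviation: GI50, concentration required for 50% inhibition of growth.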 Activity calls are given as the source filed them. Cut-off read from the data, not from the text of the source: active = GI50 up to about 1.1 µM and inactive = higher.
# Key:
# Assay in all cases: NCI-60 cell line screen, 48 h
# ACHN = system: ACHN
# A549 = system: A549
# M19-MEL = system: M19-MEL
# SW-620 = system: SW-620
# NCI-H522 = system: NCI-H522
# M14 = system: M14
# U-251 = system: U-251
# LOX IMVI = system: LOX IMVI
# SF-295 = system: SF-295
# NCI-H460 = system: NCI-H460
# XF498 = system: XF498
# K562 = system: K562
# HOP-62 = system: HOP-62
# DMS-273 = system: DMS-273
# SR = system: SR
# HCT-116 = system: HCT-116
# OVCAR-4 = system: OVCAR-4
# SNB-19 = system: SNB-19
# A498 = system: A498
# HCC 2998 = system: HCC 2998
# SNB-75 = system: SNB-75
# OVCAR-8 = system: OVCAR-8
# HCT-15 = system: HCT-15
# SNB-78 = system: SNB-78
# TK-10 = system: TK-10
# OVCAR-5 = system: OVCAR-5
# UACC-257 = system: UACC-257
# SN12C = system: SN12C
# COLO 205 = system: COLO 205
# HT-29 = system: HT-29
# SK-OV-3 = system: SK-OV-3
# RXF 393 = system: RXF 393
# IGROV-1 = system: IGROV-1
# NCI-H226 = system: NCI-H226
# DLD-1 = system: DLD-1
# CCRF-CEM = system: CCRF-CEM
# SK-MEL-2 = system: SK-MEL-2
# UACC-62 = system: UACC-62
# RPMI-8226 = system: RPMI-8226
# OVCAR-3 = system: OVCAR-3
# CAKI-1 = system: CAKI-1
# SK-MEL-28 = system: SK-MEL-28
# MOLT-4 = system: MOLT-4
# SF-268 = system: SF-268
# HOP-92 = system: HOP-92
# NCI-H23 = system: NCI-H23
# 786-0 = system: 786-0
# DMS-114 = system: DMS-114
# KM-20L2 = system: KM-20L2
# EKVX = system: EKVX
# LXFL 529 = system: LXFL 529
# KM12 = system: KM12
# UO-31 = system: UO-31
# SF-539 = system: SF-539
# Malme-3M = system: Malme-3M
# SK-MEL-5 = system: SK-MEL-5
# HL-60 = system: HL-60
smiles,measurement,setting,value
O=S(=O)(/C=C/c1ccc(Cl)cc1Cl)Cc1ccccc1CS(=O)(=O)/C=C/c1ccc(Cl)cc1Cl,GI50,ACHN,63.8 µM (inactive)
same,GI50,A549,18 µM (inactive)
same,GI50,M19-MEL,20.9 µM (inactive)
same,GI50,SW-620,> 100 µM (inactive)
same,GI50,NCI-H522,> 100 µM (inactive)
same,GI50,M14,> 100 µM (inactive)
same,GI50,U-251,> 100 µM (inactive)
same,GI50,LOX IMVI,> 100 µM (inactive)
same,GI50,SF-295,89.3 µM (inactive)
same,GI50,NCI-H460,88.7 µM (inactive)
same,GI50,XF498,32.9 µM (inactive)
same,GI50,K562,61.1 µM (inactive)
same,GI50,HOP-62,> 100 µM (inactive)
same,GI50,DMS-273,10.2 µM (inactive)
same,GI50,SR,> 100 µM (inactive)
same,GI50,HCT-116,9.59 µM (inactive)
same,GI50,OVCAR-4,11.9 µM (inactive)
same,GI50,SNB-19,> 100 µM (inactive)
same,GI50,A498,33.5 µM (inactive)
same,GI50,HCC 2998,> 100 µM (inactive)
same,GI50,SNB-75,6.18 µM (inactive)
same,GI50,OVCAR-8,7.5 µM (inactive)
same,GI50,HCT-15,46.2 µM
same,GI50,SNB-78,> 100 µM (inactive)
same,GI50,TK-10,> 100 µM (inactive)
same,GI50,OVCAR-5,> 100 µM (inactive)
same,GI50,UACC-257,52.8 µM (inactive)
same,GI50,SN12C,> 100 µM (inactive)
same,GI50,COLO 205,> 100 µM (inactive)
same,GI50,HT-29,49.4 µM (inactive)
same,GI50,SK-OV-3,> 100 µM (inactive)
same,GI50,RXF 393,65.2 µM (inactive)
same,GI50,IGROV-1,> 100 µM (inactive)
same,GI50,NCI-H226,> 100 µM (inactive)
same,GI50,DLD-1,29 µM (inactive)
same,GI50,CCRF-CEM,9.27 µM (inactive)
same,GI50,SK-MEL-2,> 100 µM (inactive)
same,GI50,UACC-62,8.38 µM (inactive)
same,GI50,RPMI-8226,5.15 µM (inactive)
same,GI50,OVCAR-3,> 100 µM (inactive)
same,GI50,CAKI-1,> 100 µM (inactive)
same,GI50,SK-MEL-28,> 100 µM (inactive)
same,GI50,MOLT-4,88.7 µM (inactive)
same,GI50,SF-268,40.5 µM (inactive)
same,GI50,HOP-92,35.8 µM (inactive)
same,GI50,NCI-H23,> 100 µM (inactive)
same,GI50,786-0,> 100 µM (inactive)
same,GI50,DMS-114,31.6 µM (inactive)
same,GI50,KM-20L2,> 100 µM (inactive)
same,GI50,EKVX,> 100 µM (inactive)
same,GI50,LXFL 529,43.1 µM (inactive)
same,GI50,KM12,> 100 µM (inactive)
same,GI50,UO-31,> 100 µM (inactive)
same,GI50,SF-539,> 100 µM (inactive)
OCC(O)C(OC1OC(CO)C(O)C(O)C1O)c1nn(-c2ccc(Cl)cc2)c2nc3cc(Cl)c(Cl)cc3nc12 (configuration not stated),GI50,ACHN,> 100 µM (inactive)
same,GI50,M19-MEL,> 100 µM (inactive)
same,GI50,NCI-H522,> 100 µM (inactive)
same,GI50,M14,> 100 µM (inactive)
same,GI50,U-251,> 100 µM (inactive)
same,GI50,LOX IMVI,> 100 µM (inactive)
same,GI50,SF-295,> 100 µM (inactive)
same,GI50,NCI-H460,> 100 µM (inactive)
same,GI50,XF498,> 100 µM (inactive)
same,GI50,K562,> 100 µM (inactive)
same,GI50,HOP-62,> 100 µM (inactive)
same,GI50,SR,> 100 µM (inactive)
same,GI50,HCT-116,> 100 µM (inactive)
same,GI50,OVCAR-4,> 100 µM (inactive)
same,GI50,SNB-19,> 100 µM (inactive)
same,GI50,A498,> 100 µM (inactive)
same,GI50,HCC 2998,> 100 µM (inactive)
same,GI50,SNB-75,> 100 µM (inactive)
same,GI50,OVCAR-8,> 100 µM (inactive)
same,GI50,HCT-15,> 100 µM
same,GI50,SNB-78,> 100 µM (inactive)
same,GI50,TK-10,> 100 µM (inactive)
same,GI50,OVCAR-5,> 100 µM (inactive)
same,GI50,UACC-257,> 100 µM (inactive)
same,GI50,SN12C,> 100 µM (inactive)
same,GI50,HT-29,> 100 µM (inactive)
same,GI50,SK-OV-3,> 100 µM (inactive)
same,GI50,RXF 393,> 100 µM (inactive)
same,GI50,DLD-1,> 100 µM (inactive)
same,GI50,CCRF-CEM,> 100 µM (inactive)
same,GI50,UACC-62,> 100 µM (inactive)
same,GI50,RPMI-8226,> 100 µM (inactive)
same,GI50,OVCAR-3,> 100 µM (inactive)
same,GI50,Malme-3M,> 100 µM (inactive)
same,GI50,SK-MEL-28,> 100 µM (inactive)
same,GI50,MOLT-4,> 100 µM (inactive)
same,GI50,SF-268,> 100 µM (inactive)
same,GI50,NCI-H23,> 100 µM (inactive)
same,GI50,786-0,> 100 µM (inactive)
same,GI50,DMS-114,> 100 µM (inactive)
same,GI50,KM-20L2,> 100 µM (inactive)
same,GI50,EKVX,> 100 µM (inactive)
same,GI50,LXFL 529,> 100 µM (inactive)
same,GI50,KM12,> 100 µM (inactive)
same,GI50,UO-31,> 100 µM (inactive)
same,GI50,SF-539,> 100 µM (inactive)
Nc1nc(SCc2ccc([N+](=O)[O-])cc2)nc2c1ncn2C1OC(CO)C(O)C1O (configuration not stated),GI50,ACHN,> 100 µM (inactive)
same,GI50,A549,> 100 µM (inactive)
same,GI50,M19-MEL,> 100 µM (inactive)
same,GI50,SW-620,> 100 µM (inactive)
same,GI50,NCI-H522,89.5 µM (inactive)
same,GI50,U-251,> 100 µM (inactive)
same,GI50,LOX IMVI,> 100 µM (inactive)
same,GI50,SF-295,> 100 µM (inactive)
same,GI50,NCI-H460,> 100 µM (inactive)
same,GI50,XF498,> 100 µM (inactive)
same,GI50,K562,> 100 µM (inactive)
same,GI50,HOP-62,> 100 µM (inactive)
same,GI50,DMS-273,> 100 µM (inactive)
same,GI50,SR,> 100 µM (inactive)
same,GI50,HCT-116,> 100 µM (inactive)
same,GI50,OVCAR-4,> 100 µM (inactive)
same,GI50,SNB-19,> 100 µM (inactive)
same,GI50,A498,> 100 µM (inactive)
same,GI50,HCC 2998,> 100 µM (inactive)
same,GI50,SK-MEL-5,> 100 µM (inactive)
same,GI50,OVCAR-8,> 100 µM (inactive)
same,GI50,HCT-15,> 100 µM
same,GI50,SNB-78,> 100 µM (inactive)
same,GI50,TK-10,> 100 µM (inactive)
same,GI50,OVCAR-5,> 100 µM (inactive)
same,GI50,UACC-257,> 100 µM (inactive)
same,GI50,SN12C,96.6 µM (inactive)
same,GI50,COLO 205,> 100 µM (inactive)
same,GI50,HT-29,> 100 µM (inactive)
same,GI50,RXF 393,> 100 µM (inactive)
same,GI50,IGROV-1,> 100 µM (inactive)
same,GI50,NCI-H226,> 100 µM (inactive)
same,GI50,DLD-1,> 100 µM (inactive)
same,GI50,CCRF-CEM,> 100 µM (inactive)
same,GI50,HL-60,> 100 µM (inactive)
same,GI50,RPMI-8226,> 100 µM (inactive)
same,GI50,OVCAR-3,> 100 µM (inactive)
same,GI50,Malme-3M,> 100 µM (inactive)
same,GI50,SK-MEL-28,> 100 µM (inactive)
same,GI50,MOLT-4,> 100 µM (inactive)
same,GI50,SF-268,> 100 µM (inactive)
same,GI50,NCI-H23,> 100 µM (inactive)
same,GI50,786-0,> 100 µM (inactive)
same,GI50,DMS-114,> 100 µM (inactive)
same,GI50,KM-20L2,> 100 µM (inactive)
same,GI50,EKVX,> 100 µM (inactive)
same,GI50,LXFL 529,78.5 µM (inactive)
same,GI50,KM12,> 100 µM (inactive)
same,GI50,UO-31,> 100 µM (inactive)
c1ccc(C2[C@@H]3CCCc4ccccc4C3=NN2c2ccccc2)cc1 (some centres not stated),GI50,ACHN,> 100 µM (inactive)
same,GI50,A549,> 100 µM (inactive)
same,GI50,M19-MEL,> 100 µM (inactive)
same,GI50,SW-620,> 100 µM (inactive)
same,GI50,NCI-H522,35 µM (inactive)
same,GI50,U-251,> 100 µM (inactive)
same,GI50,LOX IMVI,40.8 µM (inactive)
same,GI50,SF-295,> 100 µM (inactive)
same,GI50,NCI-H460,> 100 µM (inactive)
same,GI50,XF498,28.2 µM (inactive)
same,GI50,K562,32.7 µM (inactive)
same,GI50,HOP-62,> 100 µM (inactive)
same,GI50,SR,91.6 µM (inactive)
same,GI50,HCT-116,42 µM (inactive)
same,GI50,OVCAR-4,49.5 µM (inactive)
same,GI50,SNB-19,> 100 µM (inactive)
same,GI50,A498,> 100 µM (inactive)
same,GI50,HCC 2998,> 100 µM (inactive)
same,GI50,SK-MEL-5,18.8 µM (inactive)
same,GI50,OVCAR-8,> 100 µM (inactive)
same,GI50,HCT-15,52.5 µM
same,GI50,SNB-78,> 100 µM (inactive)
same,GI50,TK-10,> 100 µM (inactive)
same,GI50,OVCAR-5,> 100 µM (inactive)
same,GI50,UACC-257,> 100 µM (inactive)
same,GI50,SN12C,> 100 µM (inactive)
same,GI50,COLO 205,> 100 µM (inactive)
same,GI50,HT-29,61.7 µM (inactive)
same,GI50,RXF 393,92.3 µM (inactive)
same,GI50,IGROV-1,> 100 µM (inactive)
same,GI50,NCI-H226,> 100 µM (inactive)
same,GI50,DLD-1,51.6 µM (inactive)
same,GI50,CCRF-CEM,87.7 µM (inactive)
same,GI50,HL-60,80 µM (inactive)
same,GI50,RPMI-8226,40.7 µM (inactive)
same,GI50,OVCAR-3,31.8 µM (inactive)
same,GI50,Malme-3M,> 100 µM (inactive)
same,GI50,SK-MEL-28,> 100 µM (inactive)
same,GI50,MOLT-4,48.6 µM (inactive)
same,GI50,SF-268,> 100 µM (inactive)
same,GI50,NCI-H23,61 µM (inactive)
same,GI50,786-0,> 100 µM (inactive)
same,GI50,DMS-114,> 100 µM (inactive)
same,GI50,KM-20L2,> 100 µM (inactive)
same,GI50,EKVX,46.8 µM (inactive)
same,GI50,LXFL 529,53.2 µM (inactive)
same,GI50,KM12,> 100 µM (inactive)
same,GI50,UO-31,> 100 µM (inactive)
